Source: patent publication US9062004B2, “Cannabinoid-2 agonists” (Allergan, Inc., priority 2010, dated 2015)

Tests used:
[1] = test system: mouse isolated vas deferens; test: Mouse isolated vas deferens (MVD) bioassay, electrically stimulated contractions; format: cell-based; conditions: vas deferens of male Swiss Webster mice, electrically evoked contractions, NA = not active; for EC50: Mus musculus, read-out: MVD Assay EC50
[2] = biological target: human CB2 cannabinoid receptor (Homo sapiens (Human), UniProt P34972); test: Radioligand binding assay, CB2 ([3H]-CP 55,940 competition); conditions: for IC50: plasma membranes of HEK 293 EBNA cells transfected with human CB2, 0.72 nM [3H]-CP 55,940, NA = not active; for CB2 Selectivity: CB2 versus CB1 binding (ratio of CB1 IC50 to CB2 IC50)
Method: (§1) A. Radioligand Binding Assay
(§2) Plasma membranes prepared from HEK 293 EBNA cells transfected with human CB1 or CB2 cannabinoid receptors ([…] protein, receptor concentration; PerkinElmer) were used for the radioligand binding studies. The composition of incubation buffer for CB1 assay was 50 mM Tris base, 2.5 mM EDTA, 5 mM MgCl2 and 0.5 mg/ml fatty acid free BSA and for CB2 assay was 50 mM Tris base, 2.5 mM EGTA, 5 mM MgCl2 and 1 mg/ml fatty acid free BSA; pH was adjusted to 7.4 by adding 1N HCl. Plasma membranes were diluted with incubation buffer to provide a final protein concentration of 2.4 μg (CB1) or 8 μg (CB2) per well in non-binding surface polystyrene 96-well assay plates (Corning). Compound solutions were prepared in silanized glass tubes and dispensed using pipette tips with SUPERSLIK™ surface. Competition studies were performed using a final concentration of 0.72 nM [^3H]-CP 55,940 (100-180 Ci/mmol, specific activity; PerkinElmer) against test compounds. Non-specific binding was determined using 10 uM of unlabeled CP 55,940. Incubations were performed in 96-well assay plates at a final volume of 200 ul for 90 min (CB1) or 60 min (CB2) at room temperature. Binding reactions were terminated by the addition of ice-cold incubation buffer and rapid filtration through a glass fiber filter using a cell harvester (Inotech). This was followed by 8 additional washes. The glass fiber filter (0.26 mm thickness, 1-1.5 um retention; Inotech) was presoaked in cold incubation buffer containing 0.05% polyethylenimine. The filters were oven-dried at 50° C. for 60 min and counting performed using a Beckman Coulter LS 6500 Multi-Purpose Scintillation Counter (Beckman-Coulter). Binding was determined in duplicate for at least 4 separate experiments.

[3] = biological target: human CB1 cannabinoid receptor (Homo sapiens (Human), UniProt P21554); test: Radioligand binding assay, CB1 ([3H]-CP 55,940 competition); conditions: plasma membranes of HEK 293 EBNA cells transfected with human CB1; 0.72 nM [3H]-CP 55,940; NA = not active
Method: as §1, §2

Sequence of human CB2 cannabinoid receptor (P34972 whole entry): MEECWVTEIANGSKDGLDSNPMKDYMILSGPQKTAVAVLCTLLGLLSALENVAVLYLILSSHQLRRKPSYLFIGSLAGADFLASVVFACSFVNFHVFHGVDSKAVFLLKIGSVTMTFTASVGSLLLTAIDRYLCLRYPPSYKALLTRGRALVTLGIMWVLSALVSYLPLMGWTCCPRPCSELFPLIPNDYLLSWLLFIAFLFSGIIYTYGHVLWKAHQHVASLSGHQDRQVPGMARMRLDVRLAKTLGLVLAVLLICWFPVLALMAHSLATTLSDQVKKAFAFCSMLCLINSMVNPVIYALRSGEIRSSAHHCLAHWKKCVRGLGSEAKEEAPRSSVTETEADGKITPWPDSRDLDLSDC
Sequence of human CB1 cannabinoid receptor (P21554 whole entry): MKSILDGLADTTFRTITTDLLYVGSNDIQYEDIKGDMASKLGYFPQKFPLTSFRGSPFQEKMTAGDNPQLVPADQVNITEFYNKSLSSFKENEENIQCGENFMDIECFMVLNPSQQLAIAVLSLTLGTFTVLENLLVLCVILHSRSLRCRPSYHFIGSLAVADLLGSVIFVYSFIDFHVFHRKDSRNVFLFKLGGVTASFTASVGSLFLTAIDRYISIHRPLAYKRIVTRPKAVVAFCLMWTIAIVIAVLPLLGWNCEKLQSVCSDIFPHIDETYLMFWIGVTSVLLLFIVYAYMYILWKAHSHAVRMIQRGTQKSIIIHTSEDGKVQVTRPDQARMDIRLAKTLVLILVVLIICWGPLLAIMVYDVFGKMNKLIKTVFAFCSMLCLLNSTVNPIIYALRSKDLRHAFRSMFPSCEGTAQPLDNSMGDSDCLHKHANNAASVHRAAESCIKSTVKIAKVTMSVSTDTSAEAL

SMILES | EC50 [1] [nM] | IC50 [2] [nM] | CB2 Selectivity [2] | IC50 [3] [nM] | MVD assay qualitative outcome [1]
CC1(C)CC(n2ncc(Cl)c(Cl)c2=O)CC(C)(C)C1 [Compound 2, 4,5-Dichloro-2-(3,3,5,5-tetramethyl-cyclohexyl)pyridazin-3-one] | > 10000 | 389 | >26 | > 10000 | 
CNc1cnn(C2CC(C)(C)CC(C)(C)C2)c(=O)c1Cl [Compound 3, 4-Chloro-5-methylamino-2-(3,3,5,5-tetramethylcyclohexyl)pyridazin-3-one] | 2900 | 355 | >28 | > 10000 | 
CN(C)c1cnn(C2CC(C)(C)CC(C)(C)C2)c(=O)c1Cl [Compound 4, 4-Chloro-5-dimethylamino-2-(3,3,5,5-tetramethylcyclohexyl) pyridazin-3-one] | 82 | 17 | 60 | 1020 | 
CNc1cnn(C2CC(C)(C)CC(C)(C)C2)c(=O)c1 [Compound 6, 5-Methylamino-2-(3,3,5,5-tetramethyl-cyclohexyl)pyridazin-3-one] | 10000 | 2090 | >5 | > 10000 | 
CCCNc1cnn(C2CC(C)(C)CC(C)(C)C2)c(=O)c1 [Compound 8, 5-Propylamino-2-(3,3,5,5-tetramethyl-cyclohexyl)pyridazin-3-one] | 440 | 68 | >147 | > 10000 | 
CC1(C)CC(n2ncc(NCCN3CCOCC3)c(Cl)c2=O)CC(C)(C)C1 [Compound 11, 4-Chloro-5-(2-morpholin-4-ylethyl-amino)-2-(3,3,5,5-tetramethyl-cyclohexyl)pyridazin-3-one] | 320 | 83 | 48 | 3980 | 
CN(C)CCNc1cnn(C2CC(C)(C)CC(C)(C)C2)c(=O)c1Cl [Compound 12, 4-Chloro-5-(2-dimethylaminoethylamino)-2-(3,3,5,5-tetramethyl-cyclohexyl)pyridazin-3-one] | 2900 | 204 | >49 | > 10000 | 
CN(C)CCNc1cnn(C2CC(C)(C)CC(C)(C)C2)c(=O)c1Br [Compound 14, 4-Bromo-5-(2-dimethylaminoethylamino)-2-(3,3,5,5-tetramethyl-cyclohexyl)pyridazin-3-one] | 820 | 42 | 177 | 7410 | 
CCCNc1cnn(-c2cc(C)cc(C)c2)c(=O)c1Cl [Compound 16, 4-Chloro-2-(3,5-dimethylphenyl)-5-propylaminopyridazin-3-one] | > 10000 | 10000 |  | > 10000 | 
Cc1cc(C)cc(-n2ncc(N(C)C)c(Cl)c2=O)c1 [Compound 17, 4-Chloro-5-dimethylamino-2-(3,5-dimethylphenyl)-pyridazin-3-one] |  | > 10000 |  |  | 
CCCNc1cnn(-c2cc(C(F)(F)F)cc(C(F)(F)F)c2)c(=O)c1Cl [Compound 20, 2-(3,5-Bistrifluoromethylphenyl)-4-chloro-5-propylamino-pyridazin-3-one] | > 10000 | > 10000 |  | > 10000 | 
CN(C)c1cnn(-c2cc(C(F)(F)F)cc(C(F)(F)F)c2)c(=O)c1Cl [Compound 21, 2-(3,5-Bistrifluoromethylphenyl)-4-chloro-5-dimethylaminopyridazin-3-one] | > 10000 | > 10000 |  |  | 
CN(C)CCNc1cnn(-c2cc(C(F)(F)F)cc(C(F)(F)F)c2)c(=O)c1Cl [Compound 23, 2-(3,5-Bistrifluoromethylphenyl)-4-chloro-5-(2-dimethylaminoethylamino)pyridazin-3-one] |  |  |  |  | Increase
CCCNc1cnn(C(C)(C)C)c(=O)c1Cl [Compound 24, 2-t-Butyl-4-chloro-5-propylamino-pyridazin-3-one] | > 10000 | > 10000 |  |  | 
CCCNc1cnn(-c2cc(Cl)cc(Cl)c2)c(=O)c1Cl [Compound 25, 4-Chloro-2-(3,5-dichlorophenyl)-5-propylaminopyridazin-3-one] | > 10000 | > 10000 |  | > 10000 | 
CC(C)(C)n1ncc(NCCN2CCOCC2)c(Cl)c1=O [Compound 27, 2-t-Butyl-4-chloro-5-(2-morpholin-4-ylethylamino)-pyridazin-3-one] | > 10000 | > 10000 |  |  | 
CCN(CC)CCNc1cnn(C2CC(C)(C)CC(C)(C)C2)c(=O)c1Cl [Compound 32, 4-Chloro-5-(2-diethylaminoethylamino)-2-(3,3,5,5-tetramethyl-cyclohexyl)pyridazin-3-one] | 10000 | 1290 |  |  | 

Further lines, with some results ahead:

EC50 [1] [nM] | IC50 [2] [nM] | CB2 Selectivity [2] | SMILES | IC50 [3] [nM] | MVD assay qualitative outcome [1]
3700 | 1820 |  | CC1(C)CC(n2ncc(O)cc2=O)CC(C)(C)C1 [Compound 1, 5-hydroxy-2-(3,3,5,5-tetramethyl-cyclohexyl)pyridazin-3-one] |  | 
30 | 5.4 | 189 | CCCNc1cnn(C2CC(C)(C)CC(C)(C)C2)c(=O)c1Cl [Compound 5, 4-Chloro-5-propylamino--2-(3,3,5,5-tetramethylcyclohexyl)pyridazin-3-one] | 1020 | 
2500 | 380 | >26 | CN(C)c1cnn(C2CC(C)(C)CC(C)(C)C2)c(=O)c1 [Compound 7, 5-Dimethylamino-2-(3,3,5,5-tetramethylcyclohexyl)pyridazin-3-one] | > 10000 | 
> 10000 | > 10000 |  | CCCNc1cnn(-c2ccccc2)c(=O)c1Cl [Compound 9, 4-Chloro-2-phenyl-5-propylamino-pyridazin-3-one] |  | 
> 10000 | 10000 |  | CCCNc1cnn(C2CCCCC2)c(=O)c1Cl [Compound 10, 4-Chloro-2-cyclohexyl-5-propylaminopyridazin-3-one] |  | 
21 | 4.8 | 36 | CCCNc1cnn(C2CC(C)(C)CC(C)(C)C2)c(=O)c1Br [Compound 13, 4-Bromo-5-propylamino--2-(3,3,5,5-tetramethylcyclohexyl)pyridazin-3-one] | 174 | 
86 | 22.4 | 83 | CC1(C)CC(n2ncc(NCCN3CCOCC3)c(Br)c2=O)CC(C)(C)C1 [Compound 15, 4-Bromo-5-(2-morpholin-4-ylethylamino)-2-(3,3,5,5-tetramethyl-cyclohexyl)pyridazin-3-one] | 1860 | 
~10000 | > 10000 |  | Cc1cc(C)cc(-n2ncc(NCCN3CCOCC3)c(Cl)c2=O)c1 [Compound 18, 4-Chloro-2-(3,5-dimethylphenyl)-5-(2-morpholin-4-ylethylamino)-pyridazin-3-one] | > 10000 | 
> 10000 | > 10000 |  | O=c1c(Cl)c(NCCN2CCOCC2)cnn1-c1cc(C(F)(F)F)cc(C(F)(F)F)c1 [Compound 22, 2-(3,5-Bistrifluoromethylphenyl)-4-chloro-5-(2-morpholin-4-ylethyl-amino)pyridazin-3-one] |  | 
> 10000 | 10000 |  | CCCNc1cnn(-c2cc(C)ccc2C)c(=O)c1Cl [Compound 26, 4-Chloro-2-(2,5-dimethylphenyl)-5-propylaminopyridazin-3-one] |  | 
 | > 10000 |  | O=c1c(Cl)c(NCCN2CCOCC2)cnn1-c1cc(Cl)cc(Cl)c1 [Compound 28, 4-Chloro-2-(3,5-dichlorophenyl)-5-(2-morpholin-4-ylethylamino)-pyridazin-3-one] |  | Increase
> 10000 | > 10000 |  | Cc1ccc(C)c(-n2ncc(NCCN3CCOCC3)c(Cl)c2=O)c1 [Compound 29, 4-Chloro-2-(2,5-dimethylphenyl)-5-(2-morpholin-4-ylethylamino)-pyridazin-3-one] |  | 
> 10000 | > 10000 |  | CCCNc1cnn(Cc2ccccc2)c(=O)c1Cl [Compound 30, 2-Benzyl-4-chloro-5-propylaminopyridazin-3-one] |  | 
> 10000 |  |  | CCCNc1cnn(CC(C)(C)C)c(=O)c1Cl [Compound 33, 4-Chloro-2-(2,2-dimethylpropyl)-5-propylaminopyridazin-3-one] |  | 
2900 | 2040 |  | CN(C)CCn1cc2c(=O)n(C3CC(C)(C)CC(C)(C)C3)ncc2n1 [Compound 39, 2-(2-Dimethylaminoethyl)-5-(3,3,5,5-tetramethylcyclohexyl)pyrazolo[3,4-d]pyridazin-4-one] |  | 
